Data taken from US8426447B2, “Spiro-tricyclic ring compounds as beta-secretase modulators and methods of use” (Amgen Inc., priority 2008, dated 2013).
pIC50: −log10 of the molar value.

What was measured:
BACE1 [1] = molecular target: T1, BACE1 (Homo sapiens, UniProt P56817); assay: In Vitro Enzymatic BACE FRET (Fluorescence Resonance Energy Transfer) Assay; type: biochemical; details: read-out: BACE1 FRET assay
How it was run: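 One-hour incubation initiated by 50 nM quenched FRET peptide spanning the BACE cleavage site, in 0.05 M acetate (pH 4.2), 100 uM genapol, 10% DMSO final. Tris addition neutralizes pH to end the reaction before fluorescence measurement.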

BACE1 [2] = molecular target: T1, BACE1; assay: In Vitro BACE Cell-based Assay (HEK cell assay): Aβ40 in conditioned medium of cells stably expressing Amyloid Precursor Protein, sandwich ELISA; details: read-out: HEK cell assay
How it was run: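 First, APP-stable cells grow 24 h at 37° C., 5% CO2. Next, test compounds are added for 24 h (10 doses, 0.1% DMSO). Finally, medium Aβ40 is determined by pAb40/6E10 sandwich ELISA with Europium TRF, and IC50 is calculated.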

[3] = test system: amyloid beta peptide (A-beta) in cerebrospinal fluid and brain; assay: In Vivo Inhibition of Beta-Secretase: reduction of A-beta levels in CSF and brain; details: after 4 hrs, mouse or rat
Description: Several animal models, including mouse, rat, dog, and monkey, may be used to screen for inhibition of beta-secretase activity in vivo following administration of a test compound sample. Animals used in this invention can be wild type, transgenic, or gene knockout animals. […] A separate group of animals receive 2% hydroxypropyl methylcellulose, 1% Tween80 alone, containing no test compound, and serve as a vehicle-control group. At the end of the test period, animals are sacrificed and brain tissues, plasma or cerebrospinal fluid are collected. […] Homogenates are centrifuged at 355,000 g, 4° C. for 30 minutes. CSF or brain supernatants are then analyzed for the presence of A-beta peptide by specific sandwich ELISA assays based on ECL (Electrochemiluminescence) technology. For example, rat Abeta40 is measured using biotinylated-4G8 (Signet) as a capture antibody and Fab40 (an in-house antibody specific to the C-terminal of Abeta40) as a detection antibody.

T1 sequence (P56817 46-501, species assumed): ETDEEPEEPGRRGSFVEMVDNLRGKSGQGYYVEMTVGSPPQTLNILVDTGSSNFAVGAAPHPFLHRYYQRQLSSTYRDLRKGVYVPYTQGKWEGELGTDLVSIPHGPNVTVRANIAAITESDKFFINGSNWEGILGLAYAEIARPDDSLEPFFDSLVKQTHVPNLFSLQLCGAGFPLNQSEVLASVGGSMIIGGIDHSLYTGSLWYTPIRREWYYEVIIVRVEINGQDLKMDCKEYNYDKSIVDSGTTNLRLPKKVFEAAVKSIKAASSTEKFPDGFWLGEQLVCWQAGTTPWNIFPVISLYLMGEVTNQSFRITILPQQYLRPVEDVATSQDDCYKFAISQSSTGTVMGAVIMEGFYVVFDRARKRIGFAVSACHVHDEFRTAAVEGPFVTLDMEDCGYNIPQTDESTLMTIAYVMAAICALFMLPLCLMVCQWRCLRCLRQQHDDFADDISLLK

## NC1=N[C@@]2(CO1)c1cc(-c3cccnc3F)ccc1Oc1ccc(N3CCOCC3)cc12 [Example 289, (S)-2′-(2-fluoropyridin-3-yl)-7′-morpholino-5H-spiro[oxazole-4,9′-xanthen]-2-amine 2,2,2-trifluoroacetate]
BACE1 [1]; Table IV, class symbols
  pIC50: > 7.00
BACE1 [2]; Table IV, class symbols
  pIC50: > 7.00
[3]; 10 mpk
  percent reduction in CSF A-beta levels: 49%
  percent reduction in brain A-beta levels: 23%
[3]; 30 mpk
  percent reduction in CSF A-beta levels: 69%
  percent reduction in brain A-beta levels: 52%

## Cc1cc(-c2ccc3c(c2)[C@]2(COC(N)=N2)c2cc(-c4cccnc4F)ccc2O3)on1 [Example 563, (4S)-2′-(2-fluoro-3-pyridinyl)-7′-(3-methyl-5-isoxazolyl)spiro[1,3-oxazole-4,9′-xanthen]-2-amine]
BACE1 [1]; Table IV, class symbols
  pIC50: > 7.00
BACE1 [2]; Table IV, class symbols
  pIC50: > 7.00
[3]; 10 mpk
  percent reduction in CSF A-beta levels: 54%
  percent reduction in brain A-beta levels: 41%

## CC(C)(C)COc1ccc2c(c1)[C@]1(COC(N)=N1)c1cc(-c3cccnc3)cnc1O2 [Example 92, (5R)-7-(2,2-dimethylpropoxy)-3-(3-pyridinyl)spiro[chromeno[2,3-b]pyridine-5,4′-[1,3]oxazol]-2′-amine]
BACE1 [1]; Table II
  pIC50: > 7.00
BACE1 [2]; Table II, Aβ40, 24 h incubation
  pIC50: > 7.00
[3]; 30 mpk
  percent reduction in CSF A-beta levels: 62%
  percent reduction in brain A-beta levels: 49%

## Cn1cc(-c2cc3c(cc2F)Oc2ccc(-c4cccnc4)cc2[C@@]32COC(N)=N2)cn1 [Example 531, (4S)-3′-fluoro-2′-(1-methyl-1H-pyrazol-4-yl)-7′-(3-pyridinyl)spiro[1,3-oxazole-4,9′-xanthen]-2-amine]
BACE1 [1]
  pIC50: > 7.00
BACE1 [2]; HEK cells
  pIC50: > 7.00
[3]; 10 mpk
  percent reduction in CSF A-beta levels: 45%
  percent reduction in brain A-beta levels: 25%

## CC1(C)C=C(c2ccc3c(c2)[C@]2(COC(N)=N2)c2cc(-c4cncnc4)ccc2O3)CCO1 [Example 689, (4R)-2′-(6,6-dimethyl-3,6-dihydro-2H-pyran-4-yl)-7′-(5-pyrimidinyl)spiro[1,3-oxazole-4,9′-xanthen]-2-amine]
BACE1 [1]
  pIC50: > 7.00
BACE1 [2]
  pIC50: > 7.00
[3]; 30 mpk
  percent reduction in CSF A-beta levels: 69%
  percent reduction in brain A-beta levels: 41%

## C[C@@H]1CN(c2ccc3c(c2)[C@]2(COC(N)=N2)c2cc(-c4cccnc4)ccc2O3)C[C@H](C)O1 [Example 662, (4S)-2′-((2R,6S)-2,6-dimethyl-4-morpholinyl)-7′-(3-pyridinyl)spiro[1,3-oxazole-4,9′-xanthen]-2-amine]
BACE1 [1]; Table IV, class symbols
  pIC50: > 7.00
BACE1 [2]; Table IV, class symbols
  pIC50: > 7.00
[3]; 30 mpk
  percent reduction in CSF A-beta levels: 53%
  percent reduction in brain A-beta levels: 34%

## NC1=N[C@@]2(CO1)c1cc(-c3cc(Cl)ccc3F)ccc1Oc1ncc(C3=CCOCC3)cc12 [Example 296, (S)-7-(5-chloro-2-fluorophenyl)-3-(3,6-dihydro-2H-pyran-4-yl)-5′H-spiro[chromeno[2,3-b]pyridine-5,4′-oxazol]-2′-amine]
BACE1 [1]; Table IV, class symbols
  pIC50: > 7.00
BACE1 [2]; Table IV, class symbols
  pIC50: > 7.00
[3]; 10 mpk
  percent reduction in CSF A-beta levels: 61%
  percent reduction in brain A-beta levels: 40%

## CC(C)(C)C#Cc1cnc2c(c1)[C@]1(COC(N)=N1)c1cc(-c3cccnc3)ccc1O2 [Example 185b, (5S)-3-(3,3-dimethyl-1-butyn-1-yl)-7-(3-pyridinyl)spiro[chromeno[2,3-b]pyridine-5,4′-[1,3]oxazol]-2′-amine]
BACE1 [1]; Table III, IC50's in uM ranges
  IC50: < 0.1 µM
BACE1 [2]; Table III, IC50's in uM ranges
  IC50: < 0.1 µM
[3]; 30 mpk
  percent reduction in CSF A-beta levels: 72%
  percent reduction in brain A-beta levels: 58%

## NC1=N[C@@]2(CO1)c1cc(-c3cncnc3)ccc1Oc1cc(F)c(C3=CCOCC3)cc12 [Example 292, (S)-2′-(3,6-dihydro-2H-pyran-4-yl)-3′-fluoro-7′-(pyrimidin-5-yl)-5H-spiro[oxazole-4,9′-xanthen]-2-amine]
BACE1 [1]; Table IV, class symbols
  pIC50: > 7.00
BACE1 [2]; Table IV, class symbols
  pIC50: > 7.00
[3]; 10 mpk
  percent reduction in CSF A-beta levels: 57%
  percent reduction in brain A-beta levels: 29%

## Cc1cnc(F)c(-c2ccc3c(c2)[C@@]2(COC(N)=N2)c2cc(C4=CCOCC4)ncc2O3)c1 [Example 286, (S)-3-(3,6-dihydro-2H-pyran-4-yl)-7-(2-fluoro-5-methylpyridin-3-yl)-5′H-spiro[chromeno[2,3-c]pyridine-5,4′-oxazol]-2′-amine]
BACE1 [1]
  pIC50: > 7.00
BACE1 [2]; HEK cells
  pIC50: > 7.00
[3]; 10 mpk
  percent reduction in CSF A-beta levels: 73%
  percent reduction in brain A-beta levels: 57%
